Patent US8293774B2, “Optically active (R)-aryloxypropionic acid amides and herbicidal composition comprising same” (Kyung Nong Corporation, priority 2007, dated 2012)

How the values were obtained:
[1] = tested on: GLXMA (Glycine max(L.) MERR, soy bean); test: Weed control test, foliage treatment (Test Example 1, Table 7); conditions: in vivo
Method: (§1) Seeds of rice, wheat, soy bean, barley, corn, common sorgum, barnyard grass, large crabgrass, creek grass, green foxtail and fall panicum were placed in sandy loam in 600 cm^2 pots and covered with soil. After keeping the pots in a greenhouse at 20 to 30° C. allowing growth of the plants to the 3-leaf stage of the barnyard grass, 2,000 l/ha of an emulsion obtained by diluting with water a mixture of 1 part by weight of a test compound, 5 parts by weight of acetone and 1 part by weight of an emulsifying agent (Tween 80, Junsei) was applied to the surface of the foliage of the plants. The plant damage at 10 days and 20 days after the foliage treatment was visually evaluated from the level of 1 to 100% by comparison with the untreated control: […]

[2] = tested on: HORVU (Hordeum vulgare L., barley); test: as above; conditions: in vivo
Method: as §1

[3] = tested on: ORYSA (Oryza sativa cv. Dongjin, rice); test: as above; conditions: in vivo
Method: as §1

[4] = tested on: TRZAW (Tritium aestivum L., wheat); test: as above; conditions: in vivo
Method: as §1

[5] = tested on: ARTHIS (Arthraxon hispidus (Thunb.) Makino, creek grass); test: as above; type: in vivo; conditions: Arthraxon hispidus, foliar, read-out: Plant damage (herbicidal activity), visually evaluated, ARTHIS; for pest or weed control at 25 g/ha: 0.025 kg/ha; for pest or weed control at 100 g/ha: 0.1 kg/ha; for pest or weed control at 200 g/ha: 0.2 kg/ha
Method: as §1

[6] = tested on: DIGSA (Digitaria Sanguinalis (L.) SCOP, large crabgrass); test: as above; type: in vivo; conditions: Digitaria sanguinalis, foliar, read-out: Plant damage (herbicidal activity), visually evaluated, DIGSA; for pest or weed control at 25 g/ha: 0.025 kg/ha; for pest or weed control at 100 g/ha: 0.1 kg/ha; for pest or weed control at 200 g/ha: 0.2 kg/ha
Method: as §1

[7] = tested on: ECHOG (Echinoch crus-galli Beauv. var. caudata Kitagawa, barnyard grass); test: as above; type: in vivo; conditions: Echinochloa crus-galli, foliar, 3-leaf stage, read-out: Plant damage (herbicidal activity), visually evaluated, ECHOG; for pest or weed control at 25 g/ha: 0.025 kg/ha; for pest or weed control at 100 g/ha: 0.1 kg/ha; for pest or weed control at 200 g/ha: 0.2 kg/ha
Method: as §1

[8] = tested on: PANDI (Panium dichotomiflorum Michx, fall panicum); test: as above; type: in vivo; conditions: Panicum dichotomiflorum, foliar, read-out: Plant damage (herbicidal activity), visually evaluated, PANDI; for pest or weed control at 25 g/ha: 0.025 kg/ha; for pest or weed control at 100 g/ha: 0.1 kg/ha; for pest or weed control at 200 g/ha: 0.2 kg/ha
Method: as §1

[9] = tested on: SETVIR (Setaria viridis (L.) Beauv, green foxtail); test: as above; type: in vivo; conditions: Setaria viridis, foliar, read-out: Plant damage (herbicidal activity), visually evaluated, SETVIR; for pest or weed control at 25 g/ha: 0.025 kg/ha; for pest or weed control at 100 g/ha: 0.1 kg/ha; for pest or weed control at 200 g/ha: 0.2 kg/ha
Method: as §1

[10] = tested on: SORBI (Andropogon sorghum, common sorgum); test: as above; type: in vivo; conditions: Sorghum bicolor, foliar, read-out: Plant damage (herbicidal activity), visually evaluated, SORBI; for pest or weed control at 25 g/ha: 0.025 kg/ha; for pest or weed control at 100 g/ha: 0.1 kg/ha; for pest or weed control at 200 g/ha: 0.2 kg/ha
Method: as §1

[11] = tested on: ZEAMX (Zea mays L., corn); test: as above; type: in vivo; conditions: Zea mays, foliar, read-out: Plant damage (herbicidal activity), visually evaluated, ZEAMX; for plant injury at 25 g/ha: 0.025 kg/ha; for plant injury at 100 g/ha: 0.1 kg/ha; for plant injury at 200 g/ha: 0.2 kg/ha
Method: as §1

[12] = tested on: Barnyard grass; test: Weed control test, 4-leaf stage plants (Test Example 1, Table 8); type: in vivo, Echinoch crus-galli Beauv. var. caudata Kitagawa
Excerpt: as §1, with “[…],” for “After keeping the pots in a greenhouse at 20 to 30° C. allowing growth of the plants to the 3-leaf stage of the barnyard grass,”

SMILES	Plant damage (herbicidal activity), visually evaluated, GLXMA [1]	Plant damage (herbicidal activity), visually evaluated, HORVU [2]	Plant damage (herbicidal activity), visually evaluated, TRZAW [4]	pest or weed control at 25 g/ha [5]	pest or weed control at 100 g/ha [5]	pest or weed control at 200 g/ha [5]	pest or weed control at 25 g/ha [6]	pest or weed control at 100 g/ha [6]	pest or weed control at 200 g/ha [6]	pest or weed control at 25 g/ha [7]	pest or weed control at 100 g/ha [7]	pest or weed control at 200 g/ha [7]	pest or weed control at 25 g/ha [8]	pest or weed control at 100 g/ha [8]	pest or weed control at 200 g/ha [8]	pest or weed control at 25 g/ha [9]	pest or weed control at 100 g/ha [9]	pest or weed control at 200 g/ha [9]	pest or weed control at 25 g/ha [10]	pest or weed control at 100 g/ha [10]	also measured
C[C@@H](Oc1ccc(Oc2ccc(C#N)cc2F)cc1)C(=O)Nc1nc2ccccc2s1 [Example 19, (R)-2-[4-(4-cyano-2-fluorophenoxy)phenoxy]propionic acid-N-(2-benzothiazolyl)amide]	0%	0%	0%	0%	10%	10%	0%	10%	30%	0%	20%	30%	0%	0%	0%	0%	10%	10%	20%	60%	Plant damage (herbicidal activity), visually evaluated, ORYSA [3]: 0%; pest or weed control at 200 g/ha [10]: 70%; plant injury at 25 g/ha [11]: 0%; plant injury at 100 g/ha [11]: 10%; plant injury at 200 g/ha [11]: 30%
C[C@@H](Oc1ccc(Oc2ccc(C#N)cc2F)cc1)C(=O)Nc1nc2ccc(Cl)cc2s1 [Example 21, (R)-2-[4-(4-cyano-2-fluorophenoxy)phenoxy]propionic acid-N-(6-chloro-2-benzothiazolyl)amide]	0%	0%	0%	0%	70%	70%	0%	20%	90%	20%	70%	90%	0%	70%	70%	0%	70%	90%	0%	20%	Plant damage (herbicidal activity), visually evaluated, ORYSA [3]: 0%; pest or weed control at 200 g/ha [10]: 50%; plant injury at 25 g/ha [11]: 20%; plant injury at 100 g/ha [11]: 90%; plant injury at 200 g/ha [11]: 100%
C[C@@H](Oc1ccc(Oc2ccc(C#N)cc2F)cc1)C(=O)Nc1nc2ccc(F)cc2s1 [Example 23, (R)-2-[4-(4-cyano-2-fluorophenoxy)phenoxy]propionic acid-N-(6-fluoro-2-benzothiazolyl)amide]	0%	0%	0%	0%	0%	10%	0%	20%	20%	20%	50%	50%	0%	0%	10%	0%	0%	20%	0%	20%	Plant damage (herbicidal activity), visually evaluated, ORYSA [3]: 0%; pest or weed control at 200 g/ha [10]: 20%; plant injury at 25 g/ha [11]: 10%; plant injury at 100 g/ha [11]: 90%; plant injury at 200 g/ha [11]: 90%
COc1ccc2nc(NC(=O)[C@@H](C)Oc3ccc(Oc4ccc(C#N)cc4F)cc3)sc2c1 [Example 27, (R)-2-[4-(4-cyano-2-fluorophenoxy)phenoxy]propionic acid-N-(6-methoxy-2-benzothiazolyl)amide]	0%	0%	0%	0%	0%	10%	0%	20%	90%	20%	70%	90%	0%	0%	10%	0%	0%	20%	0%	20%	pest or weed control at 200 g/ha [10]: 20%; plant injury at 25 g/ha [11]: 10%; plant injury at 100 g/ha [11]: 90%; plant injury at 200 g/ha [11]: 90%
Cc1ccnc(NC(=O)[C@@H](C)Oc2ccc(Oc3ccc(C#N)cc3F)cc2)c1 [Example 33, (R)-2-[4-(4-cyano-2-fluorophenoxy)phenoxy]propionic acid-N-(4-methyl-2-pyridinyl)amide]	–	–	–	–	–	–	–	–	–	–	–	–	–	–	–	–	–	–	–	–	Plant damage (herbicidal activity), visually evaluated, Barnyard grass ([12]; 0.025 kg/ha): 10%; Plant damage (herbicidal activity), visually evaluated, Barnyard grass ([12]; 0.05 kg/ha): 40%; Plant damage (herbicidal activity), visually evaluated, Barnyard grass ([12]; 0.1 kg/ha): 100%; Plant damage (herbicidal activity), visually evaluated, Barnyard grass ([12]; 0.4 kg/ha): 100%
C[C@@H](Oc1ccc(OC(F)=Cc2ccc(F)cc2)cc1)C(=O)Nc1nc2cc(Cl)ccc2o1 [Example 52, (R)-2-[4-(1-fluoro-2-(4-fluorophenyl)vinyloxy)phenoxy]propionic acid-N-(5-chloro-2-benzoxazolyl)amide]	0%	0%	0%	0%	0%	0%	0%	0%	10%	0%	0%	20%	0%	0%	0%	0%	0%	10%	0%	0%	pest or weed control at 200 g/ha [10]: 0%; plant injury at 25 g/ha [11]: 10%; plant injury at 100 g/ha [11]: 30%; plant injury at 200 g/ha [11]: 30%
